Activity calls are given as the source filed them. The calls are words filed in the database; no cut-off is given here.
Key:
MCF7 [1] = assay: Anticancer activity against Homo sapiens (human) MCF7 cells assessed as growth inhibition after 48 hr by SRB assay; type: functional, cell-based; settings: MCF7, 48 h
MCF7 [2] = assay: Anticancer activity against Homo sapiens (human) MCF7 cells assessed as cell growth at 100 uM after 48 hr by SRB assay; type: functional, cell-based; settings: MCF7, 48 h; for growth at 100 µM: read-out: Activity
HepG2 [3] = assay: Anticancer activity against Homo sapiens (human) HepG2 cells assessed as cell growth at 100 uM after 48 hr by SRB assay; type: functional, cell-based; settings: HepG2, 48 h; for growth at 100 µM: read-out: Activity
HCT-116 [4] = assay: Anticancer activity against Homo sapiens (human) HCT116 cells assessed as cell growth at 100 uM after 48 hr by SRB assay; type: functional, cell-based; settings: HCT-116, 48 h; for growth at 100 µM: read-out: Activity
Blood = assay: Toxicity in Homo sapiens (human) blood assessed as hemolysis
Hepatitis C virus [5] = assay: Antiviral activity against Hepatitis C virus infected HepG2 cells assessed as disappearance of (+) and or (-) strands of viral RNA at 0.30 uM after 96 hr by qualitative RT-PCR analysis; type: functional, organism-based; settings: Hepacivirus hominis
Hepatitis C virus [6] = assay: Antiviral activity against Hepatitis C virus isolated from PBMC of infected patient assessed as disappearance of (+) and or (-) strands of viral RNA at 0.30 uM after 96 hr by qualitative RT-PCR analysis; type: functional, organism-based; settings: Hepacivirus hominis
[7] = Cytotoxicity against lymphocytes in Homo sapiens (human) whole blood assessed as inhibition of cell viability after 24 to 96 hr by neutral red uptake assay; type: tissue-based; settings: Lymphocyte
Hepatitis C virus [8] = assay: Antiviral activity against Hepatitis C virus isolated from PBMC of infected patient assessed as disappearance of (+) and or (-) strands of viral RNA at 0.647 uM after 96 hr by qualitative RT-PCR analysis; type: functional, organism-based; settings: Hepacivirus hominis
Hepatitis C virus [9] = assay: Antiviral activity against Hepatitis C virus infected HepG2 cells assessed as disappearance of (+) and or (-) strands of viral RNA at 0.647 uM after 96 hr by qualitative RT-PCR analysis; type: functional, organism-based; settings: Hepacivirus hominis
HCT-116 [10] = assay: Anticancer activity against Homo sapiens (human) HCT116 cells assessed as growth inhibition after 48 hr by SRB assay; type: functional, cell-based; settings: HCT-116, 48 h
Hepatitis C virus [11] = assay: Antiviral activity against Hepatitis C virus isolated from PBMC of infected patient assessed as disappearance of (+) and or (-) strands of viral RNA at 0.108 uM after 96 hr by qualitative RT-PCR analysis; type: functional, organism-based; settings: Hepacivirus hominis
Hepatitis C virus [12] = assay: Antiviral activity against Hepatitis C virus infected HepG2 cells assessed as disappearance of (+) and or (-) strands of viral RNA at 0.108 uM after 96 hr by qualitative RT-PCR analysis; type: functional, organism-based; settings: Hepacivirus hominis
Hepatitis C virus [13] = assay: Antiviral activity against Hepatitis C virus infected HepG2 cells assessed as disappearance of (+) and or (-) strands of viral RNA at 0.078 uM after 96 hr by qualitative RT-PCR analysis; type: functional, organism-based; settings: Hepacivirus hominis
Hepatitis C virus [14] = assay: Antiviral activity against Hepatitis C virus isolated from PBMC of infected patient assessed as disappearance of (+) and or (-) strands of viral RNA at 0.078 uM after 96 hr by qualitative RT-PCR analysis; type: functional, organism-based; settings: Hepacivirus hominis
Hepatitis C virus [15] = assay: Antiviral activity against Hepatitis C virus isolated from PBMC of infected patient assessed as disappearance of (+) and or (-) strands of viral RNA at 0.394 uM after 96 hr by qualitative RT-PCR analysis; type: functional, organism-based; settings: Hepacivirus hominis
Hepatitis C virus [16] = assay: Antiviral activity against Hepatitis C virus infected in HepG2 cells assessed as disappearance of (+) and or (-) strands of viral RNA at 0.394 uM after 96 hr by qualitative RT-PCR analysis; type: functional, organism-based; settings: Hepacivirus hominis
Hepatitis C virus [17] = assay: Antiviral activity against Hepatitis C virus isolated from PBMC of infected patient assessed as disappearance of (+) and or (-) strands of viral RNA at 0.611 uM after 96 hr by qualitative RT-PCR analysis; type: functional, organism-based; settings: Hepacivirus hominis
Hepatitis C virus [18] = assay: Antiviral activity against Hepatitis C virus infected HepG2 cells assessed as disappearance of (+) and or (-) strands of viral RNA at 0.611 uM after 96 hr by qualitative RT-PCR analysis; type: functional, organism-based; settings: Hepacivirus hominis
Hepatitis C virus [19] = assay: Antiviral activity against Hepatitis C virus infected HepG2 cells assessed as disappearance of (+) and or (-) strands of viral RNA at 0.295 uM after 96 hr by qualitative RT-PCR analysis; type: functional, organism-based; settings: Hepacivirus hominis
Hepatitis C virus [20] = assay: Antiviral activity against Hepatitis C virus isolated from PBMC of infected patient assessed as disappearance of (+) and or (-) strands of viral RNA at 0.295 uM after 96 hr by qualitative RT-PCR analysis; type: functional, organism-based; settings: Hepacivirus hominis
Hepatitis C virus [21] = assay: Antiviral activity against Hepatitis C virus infected HepG2 cells assessed as disappearance of (+) and or (-) strands of viral RNA at 1.116 uM after 96 hr by qualitative RT-PCR analysis; type: functional, organism-based; settings: Hepacivirus hominis
Hepatitis C virus [22] = assay: Antiviral activity against Hepatitis C virus isolated from PBMC of infected patient assessed as disappearance of (+) and or (-) strands of viral RNA at 1.116 uM after 96 hr by qualitative RT-PCR analysis; type: functional, organism-based; settings: Hepacivirus hominis
[23] = molecular target: T1, Arylamine N-acetyltransferase 1 (Homo sapiens, UniProt P18440); assay: Inhibition of Homo sapiens (human) arylamine N-acetyltransferase 1
T1 sequence (P18440 whole entry): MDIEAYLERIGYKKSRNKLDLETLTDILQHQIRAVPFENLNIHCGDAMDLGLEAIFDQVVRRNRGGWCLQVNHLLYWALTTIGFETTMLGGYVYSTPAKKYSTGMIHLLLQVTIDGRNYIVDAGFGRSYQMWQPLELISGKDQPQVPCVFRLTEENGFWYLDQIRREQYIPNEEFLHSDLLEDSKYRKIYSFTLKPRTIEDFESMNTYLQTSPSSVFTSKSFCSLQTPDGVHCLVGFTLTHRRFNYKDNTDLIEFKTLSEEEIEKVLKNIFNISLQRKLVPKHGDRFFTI

Hepatitis C virus [24] = assay: Antiviral activity against Hepatitis C virus infected HepG2 cells assessed as disappearance of (+) and or (-) strands of viral RNA at 0.077 uM after 96 hr by qualitative RT-PCR analysis; type: functional, organism-based; settings: Hepacivirus hominis
Hepatitis C virus [25] = assay: Antiviral activity against Hepatitis C virus isolated from PBMC of infected patient assessed as disappearance of (+) and or (-) strands of viral RNA at 0.077 uM after 96 hr by qualitative RT-PCR analysis; type: functional, organism-based; settings: Hepacivirus hominis
Hepatitis C virus [26] = assay: Antiviral activity against Hepatitis C virus infected in HepG2 cells assessed as disappearance of (+) and or (-) strands of viral RNA at 0.312 uM after 96 hr by qualitative RT-PCR analysis; type: functional, organism-based; settings: Hepacivirus hominis
HepG2 [27] = assay: Anticancer activity against Homo sapiens (human) HepG2 cells assessed as growth inhibition after 48 hr by SRB assay; type: functional, cell-based; settings: HepG2, 48 h
Hepatitis C virus [28] = assay: Antiviral activity against Hepatitis C virus isolated from PBMC of infected patient assessed as disappearance of (+) and or (-) strands of viral RNA at 0.312 uM after 96 hr by qualitative RT-PCR analysis; type: functional, organism-based; settings: Hepacivirus hominis

IC50 (MCF7 [1]) [µM]	SMILES	growth at 100 µM (MCF7 [2]) [%]	growth at 100 µM (HepG2 [3]) [%]	growth at 100 µM (HCT-116 [4]) [%]	Activity (Blood)	IC50 [7] [µM]	also measured
34.8	O=C1/C(=C\c2ccccc2Cl)S/C(=N\c2ccccc2)N1Cc1nc2ccccc2[nH]1	-1.74	18.9	13.8	–	–	–
37.4	O=C1/C(=C/C=C/c2ccccc2)SC(=S)N1Cc1nc2ccccc2[nH]1	-3.93	14.2	21.2	–	–	–
–	COc1ccc(/C=C2/S/C(=N\c3ccccc3)N(Cc3nc4ccccc4[nH]3)C2=O)c(OC)c1	-1.19	18.4	15.5	–	–	–
–	CC(=O)NS(=O)(=O)c1ccc(N/N=C2/SC(=S)N(Cc3nc4ccccc4[nH]3)C2=O)cc1	–	–	–	Non-toxic	15.3	Activity (Hepatitis C virus [5]): inactive; Activity (Hepatitis C virus [6]): inactive
–	COc1ccc(/C=C2\SC(=S)N(Cc3nc4ccccc4[nH]3)C2=O)c(OC)c1	0.34	17.8	19.2	–	–	–
–	O=C1/C(=C\c2ccc(Cl)cc2)S/C(=N\c2ccccc2)N1Cc1nc2ccccc2[nH]1	–	–	–	Non-toxic	32.4	Activity (Hepatitis C virus [8]): inactive; Activity (Hepatitis C virus [9]): inactive
–	O=C1/C(=C\c2ccccc2)S/C(=N\c2ccccc2)N1Cc1nc2ccccc2[nH]1	-0.69	24.4	7	–	–	IC50 (HCT-116 [10]): 7.3 µM
46.7	COc1ccc(/C=C2\SC(=S)N(Cc3nc4ccccc4[nH]3)C2=O)cc1	-5.75	11.8	16.2	Non-toxic	54.3	Activity (Hepatitis C virus [11]): inactive; Activity (Hepatitis C virus [12]): inactive
39.4	O=C1/C(=C/c2ccc([N+](=O)[O-])cc2)SC(=S)N1Cc1nc2ccccc2[nH]1	–	–	–	Non-toxic	39.5	Activity (Hepatitis C virus [13]): inactive; Activity (Hepatitis C virus [14]): inactive
–	Cc1ccc(/N=C2\S/C(=C\c3ccc(Cl)cc3)C(=O)N2Cc2nc3ccccc3[nH]2)cc1	–	–	–	Non-toxic	19.7	Activity (Hepatitis C virus [15]): inactive; Activity (Hepatitis C virus [16]): inactive
39.6	O=C1/C(=C/c2ccccc2Cl)SC(=S)N1Cc1nc2ccccc2[nH]1	-4.32	9.07	27.6	–	–	–
–	O=C1/C(=N\Nc2ccc(S(=O)(=O)Nc3ncccn3)cc2)SC(=S)N1Cc1nc2ccccc2[nH]1	–	–	–	Non-toxic	30.6	Activity (Hepatitis C virus [17]): inactive; Activity (Hepatitis C virus [18]): inactive
–	CN(C)c1ccc(/C=C2\SC(=S)N(Cc3nc4ccccc4[nH]3)C2=O)cc1	–	–	–	Non-toxic	14.8	Activity (Hepatitis C virus [19]): inactive; Activity (Hepatitis C virus [20]): inactive
35.4	O=C1Nc2ccccc2/C1=C1/SC(=S)N(Cc2nc3ccccc3[nH]2)C1=O	–	–	–	Non-toxic	55.8	Activity (Hepatitis C virus [21]): inactive; Activity (Hepatitis C virus [22]): inactive
35.1	O=C1/C(=C/c2ccccc2)SC(=S)N1Cc1nc2ccccc2[nH]1	–	–	–	–	–	–
–	O=C1NC(=O)/C(=C/c2ccccc2O)S1	–	–	–	–	–	IC50 [23]: 1.1 µM
–	O=C1/C(=C\c2ccc([N+](=O)[O-])cc2)S/C(=N\c2ccccc2)N1Cc1nc2ccccc2[nH]1	-0.79	24	18	–	–	–
27.7	COc1ccc(OC)c(/C=C2\SC(=S)N(Cc3nc4ccccc4[nH]3)C2=O)c1	-2.27	18.6	20.8	Non-toxic	39	Activity (Hepatitis C virus [24]): inactive; Activity (Hepatitis C virus [25]): inactive
–	O=C1Nc2ccccc2/C1=C1/S/C(=N\c2ccccc2)N(Cc2nc3ccccc3[nH]2)C1=O	–	–	–	Non-toxic	15.6	Activity (Hepatitis C virus [26]): inactive; IC50 (HepG2 [27]): 5.91 µM; IC50 (MCF7 [2]): 7.07 µM; IC50 (HepG2 [3]): 6.8 µM; Activity (Hepatitis C virus [28]): inactive; IC50 (HCT-116 [4]): 16.2 µM

From ChEMBL document CHEMBL3044858, “Design, synthesis, and biological evaluation of new 4-thiazolidinone derivatives substituted with benzimidazole ring as potential chemotherapeutic agents” (Med Chem Res, 2013)
